In paper PMC5849182, “Kallikrein-related peptidase 7 is a potential target for the treatment of pancreatic cancer” (Oncotarget, 2018):

What was measured:
HepG2 cells = test: RTCA proliferation, migration and invasion of KLK7 silenced HepG2 cells; type: cell-based
Method: (§1) Cell migration assay was performed on RTCA xCELLigence DP (ACEA Biosciences). […] Migration was measured as the relative cell index change measured by the microelectronic sensors integrated into the bottom side of the membrane. Measurements were recorded every 15 min for 36 h.
(§2) Cell matrigel invasion assay was similar to the cell migration assay, except that the microporous membrane between the upper and lower chambers was coated by a thin layer of matrigel (BD Biosciences). After 36 h, cells on the bottom side were fixed in cold methanol, stained with 0.4% crystal violet, and photographed (5 random fields for each sample).

PANC-1 cells [1] = test: RTCA matrigel invasion assay; type: cell-based; settings: KLK7 silenced PANC-1 cells, compared to BC and NC groups
Method: as §2
(§3) The tested compound was added into the cell culture medium 3 h after PANC-1 cells were seeded. The cell prolifiation, migration and matrigel invasion was then assayed on RTCA.

KLK7 = KLK7 expression in lentivirus-infected PANC-1 cells (real-time PCR and western blotting); type: cell-based, human; settings: PANC-1 cells stably infected, compared to NC group
Description: A scrambled shRNA sequence was used as the negative control (LV-NC-shRNA, 5′-[…]-3′). The shRNA sequences were synthesized and cloned into recombinant shRNA expression vectors (pGLV3-H1-GFP-Puro). The resulted plasmids were verified by DNA sequencing.
PANC-1 and HepG2 cell lines were obtained from the Chinese Type Culture Collection Center (Wuhan, China). PANC-1 cells were maintained in dulbecco’s modified Eagle medium supplemented with 10% fetal bovine serum, 100 units/ml penicillin G sodium, and 100 μg/ml streptomycin sulphate. HepG2 cells were maintained in RPMI 1640 medium supplemented with 10% fetal bovine serum, 100 units/ml penicillin G sodium, and 100 μg/ml streptomycin sulphate. PANC-1 and HepG2 cells pro-treated by 5 μg/ml polybrene were infected with the lentivirus and stably infected cells were selected in cell culture medium containing 4 μg/ml puromycin (Sigma-Aldrich). […]
Western blotting assay was performed with cell lysates collected from stably transfected cells. Total protein concentrations were measured with the bicinchoninic assay (BCA). The sample proteins (20μg for each lane) were analyzed first in 12% SDS-PAGE and then transferred onto polyvinylidine difuorides membranes. […] The chemiluminescent data were collected and grayscale values were evaluated with Image J.

PANC-1 cells [2] = test: RTCA cell migration assay; type: cell-based; settings: KLK7 silenced PANC-1 cells, compared to BC and NC groups
Method: as §1, §3

5′-GCACUGAGUUAAUUAACUGUGUUUCAAGAGAACACAGUUAAUUAACUCAGUGCUU-3′ (expressed or natural sequence) [LV-hKLK7-shRNA-4, PANC-1 cells infected with it are named KD4]
Effect on invasion of HepG2 cells (HepG2 cells): did not affect | Effect on migration of HepG2 cells (HepG2 cells): did not affect | Invasion capacity (PANC-1 cells [1]): almost fully inhibited | Decrease of KLK7 expression (KLK7): around 90% | Decrease of migration rate (PANC-1 cells [2]): about 85%
